Values quoted from earlier work, collected in patent publication US20200390965A1, “TAILORED DOSE OF CONTRAST AGENT” (GE HEALTHCARE AS, priority 2017, published 2020).

Conditions: powder form; aggregates dissolve very slowly

solubility in water	Compound
highly soluble in water	CC(=O)N(CC(O)CN(C(C)=O)c1c(I)c(C(=O)NCC(O)CO)c(I)c(C(=O)NCC(O)CO)c1I)c1c(I)c(C(=O)NCC(O)CO)c(I)c(C(=O)NCC(O)CO)c1I (centres unmarked) [iodixanol]
highly soluble in water	CC(=O)N(CC(O)CO)c1c(I)c(C(=O)NCC(O)CO)c(I)c(C(=O)NCC(O)CO)c1I (centres unmarked) [iohexol]
